One series deals with IDH4 cells. Kind of series: Dexamethasone dependent growth of IDH4 cells (3H-thymidine). It is filed as cell-based, human. Particulars: for dexamethasone dependent growth of IDH4 cells: 72 hours; for [3H]-thymidine incorporation of IDH4 cells: without stimulation 16,391. On the procedure:
IDH4 cells, that express endogenous glucocorticoid receptors, were produced by transfecting human fibroblasts with a plasmid containing the MMTV-long terminal repeat driving the SV40 large T antigen. Since extended growth of these cells is dependent on expression of the large T antigen, these cells require exogenous glucocorticoid to maintain proliferation.
[^3H]-Thymidine was present for the last 16 h. Data represent the mean % inhibition of [^3H]-thymidine incorporation of three replicate determinations of three separate experiments.

Another series addresses T1, human GR (Homo sapiens, UniProt P04150).
T1 construct: host or cells: COS-7
T1 sequence (P04150 1-777): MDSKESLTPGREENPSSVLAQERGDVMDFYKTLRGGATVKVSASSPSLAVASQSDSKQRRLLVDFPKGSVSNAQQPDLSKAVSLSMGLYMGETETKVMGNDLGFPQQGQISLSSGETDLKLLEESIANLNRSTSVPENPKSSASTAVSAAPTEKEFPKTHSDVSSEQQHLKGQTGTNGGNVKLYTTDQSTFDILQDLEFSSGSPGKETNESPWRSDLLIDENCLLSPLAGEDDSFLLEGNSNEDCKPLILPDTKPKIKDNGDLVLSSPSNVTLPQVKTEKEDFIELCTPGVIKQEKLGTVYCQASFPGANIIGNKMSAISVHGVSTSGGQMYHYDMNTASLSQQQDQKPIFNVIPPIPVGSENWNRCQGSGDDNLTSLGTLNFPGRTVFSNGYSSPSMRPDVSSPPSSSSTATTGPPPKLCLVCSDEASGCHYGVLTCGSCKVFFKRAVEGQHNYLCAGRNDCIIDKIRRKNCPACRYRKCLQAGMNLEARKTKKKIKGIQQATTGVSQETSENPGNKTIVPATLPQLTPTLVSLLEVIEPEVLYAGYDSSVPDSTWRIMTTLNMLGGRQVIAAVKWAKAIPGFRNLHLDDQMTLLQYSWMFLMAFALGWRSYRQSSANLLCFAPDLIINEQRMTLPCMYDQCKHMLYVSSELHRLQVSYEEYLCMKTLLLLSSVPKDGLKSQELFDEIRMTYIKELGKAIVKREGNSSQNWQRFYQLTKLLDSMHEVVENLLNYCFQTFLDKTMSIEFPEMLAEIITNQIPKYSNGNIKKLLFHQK
Kind of series: GR mediated gene activation, MMTV-luciferase in COS-7 cells, with dexamethasone. Particulars: for GR-mediated activation of target gene (MMTV-luciferase): dexamethasone-induced. It counts as cell-based. On the procedure: Cell transfections and assays of GR mediated gene activation. COS-7 cells were maintained in culture in DMEM-10% bovine calf serum. […] Cells were plated at 10^6 cells per 10 cm plate. Twenty-four hours later, the cells were transfected with 500 ng pRShGrα, a GR expression vector (obtained from the Salk Institute, La Jolla, CA) and 10 µg of pMMTV-luciferase, a synthetic reporter gene. However, other expression vectors and synthetic reporter genes available to those of skill in the art may be used for transfection. The vector pMMTV-luciferase contains the luciferase gene under regulatory control of glucocorticoid-inducible elements in the MMTV-long terminal repeat. Cells were transfected using the calcium-phosphate precipitation technique (mammalian transfection kit, Stratagene, La Jolla, CA). […] Twenty-four hours later, the cells were washed, harvested, and lysates prepared by three cycles of freeze/thawing. The lysates were cleared by centrifugation at 12,000 x g for 5 minutes; aliquots were assayed for protein content and equal amounts of proteins were used for luciferase assays.
COS-7 cells were transfected with a human GR expression vector and the MMTV-luciferase reporter gene construct. A parallel set of plates was transfected with the constitutively active RSV-luciferase construct. […] Cells were lysed after 24 hours and assayed for luciferase activity.

The test system of series [1] is PHA-stimulated T cells. Kind of series: PHA-induced T cell proliferation (924 / wilforonide). It counts as cell-based. Particulars: PHA 0.5 µg/ml, 3 days. From the text:
The molecular groups responsible for the immune suppressive function of these compounds are unknown, however, the core structure of diterpenoids which may be related to their activity consists of an α-β-unsaturated 5 element lactone which can be identified by Kedde reagents. HPLC was used to fractionate the ethyl acetate extract of TwHF and the Kedde reagents were employed to trace the fractions. Then, the effect of selected fractions on the in vitro IL-2 production and [^3H]-thymidine incorporation by PHA-activated T cells was determined. Fractions that inhibit these T cell functions were selected and the chromatographic pattern was identified with HPLC. One fraction was further purified with HPLC and crystallized repeatedly; a pure, crystallized compound was obtained and designated "924".
[^3H]-thymidine was added for the last 14 hours of culture. Each concentration was run in quadruplicate (4 times) and the results for each concentration averaged to provide a mean. The mean cpm x 10^3 values were combined and expressed as a percent of T cell inhibition.

A further series has as its system T cells. Kind of series: Antigen (SK)-induced T cell proliferation (wilforonide). It counts as cell-based. The method, then:
T cells were cultured with or without SK (1 ng/ml) or SK + IL-2 (50 u/ml) or SK + PMA (0.2 ng/ml) in the presence or absence of the following concentrations of wilforonide: 10 ng/ml, 50 ng/ml, 100 ng/ml, 500 ng/ml or 1,000 ng/ml. The cells were allowed to culture for five days. The cultures were pulsed with [^3H]-thymidine for the last 24 hours of culture. […] ID50 were calculated based on the regression formula by using the fx-3600 calculator. T cells cultured with SK or SK + IL-2 or SK + PMA gave cpm of 1.87 x 10^3, 4.99 x 10^3 and 6.67 x 10^3, respectively.

The test system of series [2] is PHA-stimulated T cells. Briefly: Viability of PHA-stimulated T cells (924). It is filed as cell-based. On the procedure: A 924 fraction concentration of 1,000 ng/ml was only slightly more toxic to cell viability as compared to the 0 ng/ml dose (see FIG. 20D, 0 ng/ml = 22% of control; 1,000 ng/ml fraction 924 = […] of control cell viability).
Another series concerns IL-2R. Kind of series: IL-2R expression by PHA-activated T cells (924). It counts as cell-based. Conditions: 500 ng/ml. From the text:
There was no effect of "924" on IL-2R expression by PHA-activated T cells.

The next series has as its system IL-2. Kind of series: PHA-induced IL-2 production (wilforonide, CTLL-2 readout). It counts as cell-based. Particulars: PHA 1 µg/ml, overnight. On the procedure: The effects of wilforonide on IL-2 production was also examined. T cells were cultured with or without PHA(1 microgram/ml) in the presence or absence of 0 (control), 10 ng/ml, 50 ng/ml, 100 ng/ml or 200 ng/ml wilforonide overnight. Cell-free supernatants were diluted 1 to 80 and the IL-2 content assayed with CTLL-2 cells.

A further series in a line: Solubility of 924. It is filed as physicochemical. Particulars: ethanol and chloroform. On the procedure:
The dried woody skinned part of the root of TwHF was extracted with ethanol. The solution was concentrated at reduced pressure, and the residue was dissolved in ethyl acetate. This solution was passed through Al2O3 with ethanol as an eluent. The eluate was evaporated and the residue chromatographed on silica gel with chloroform, chloroform-ether and ethyl acetate as successive eluent. The fractions eluted with chloroform-ether were purified on a preparative HPLC column packed with Nova-Pak C18 and equipped with a 214 detector. Methanol-water was the mobile phase. A fraction having positive reaction to Kedde reagent was collected and extracted with chloroform. The chloroform solution was evaporated to dryness and the residue crystallized in dichloromethane-hexane to yield 924.

Another series deals with U937 cells. Briefly: PGE2 production by LPS-activated U937 cells. It is filed as cell-based, human. From the text:
This reflected marked suppression of the induction ofmRNA for cycloxygenase -2 (COX-2). […] This may contribute to its capacity to suppress autoimmune and inflammatory diseases.

The test system of another series is cyclooxygenase 2 (COX-2). Kind of series: LPS (endotoxin) induced PGE2 production by monocytes. It is filed as cell-based, human. Particulars: LPS 10 µg/ml, 18 hours.
The next series is described as follows: in vitro. It counts as cell-based. On the procedure: The cells were assayed for cell viability by using a cytoflowmeter (FACSCAN) after the cells were stained with propidium iodine. […]

Molecules are shown by their SMILES. Values after ≈ are worked out from the molar mass of the structure shown.

We go through five molecules from patent publication EP1007066B1, “SCREENING METHODS FOR GLUCOCORTICOID RECEPTOR BINDING SUBSTANCES USING TRYPTERYGIUM WILFORDII PREPARATIONS” (priority 1996, dated 1998).

Method for cyclooxygenase 2 (COX-2): After 18 hours of incubation, cell-free supernatants were collected and assayed for PGE2 content with a radioimmunoassay kit (Amersham), as described by the manufacturer. […] Human monocytes produce prostaglandinE2 (PGE2) when stimulated with bacterial endotoxin.

Take `CC(C)c1ccc2c(c1O)CC[C@H]1C3=C(CC[C@]21C)C(=O)OC3` [triptophenolide]: the “dexamethasone dependent growth of IDH4 cells” value in the series with IDH4 cells is “less active”. Also, the “GR-mediated activation of target gene (MMTV-luciferase)” value (shortened to “GR-mediated activation of target gene”) on human GR was “far less potent”.

As to `C[C@@H]1C[C@H]2[C@@H]3CCC4=CC(=O)C=C[C@]4(C)[C@@]3(F)[C@@H](O)C[C@]2(C)[C@@]1(O)C(=O)CO` [dexamethasone], the “[3H]-thymidine incorporation of IDH4 cells” value with IDH4 cells (dexamethasone 1 nM) was 35,554 cpm; with IDH4 cells (dexamethasone 10 nM), 52,937 cpm; in the series with IDH4 cells (dexamethasone 100 nM), 105,357 cpm; in the series with IDH4 cells (dexamethasone 1,000 nM) it was 96,677 cpm.

`C[C@]12CCC3=C(COC3=O)[C@@H]1CCC(=O)C2` (relative stereo) [wilforonide, naphtho-[1,2-c] furan-3,7(1H,5H)-dione, 4,5a,6,8,9,9a-hexahydro-5a-methyl-(5aR-trans)-]: the “ID50, PHA-induced T cell proliferation” value in the series with PHA-stimulated T cells [1] was 391.30 ng/mL (≈ 1.78 µM). Besides, the “cpm x 10^3 (experiments 1.-4.)” value with PHA-stimulated T cells [1] (Wilforonide 50 ng/ml) came out at 57.0 cpm x 10^3. Besides, the “ID50, antigen-induced T cell proliferation” value in the series on T cells (SK) worked out at 127.12 ng/mL (≈ 0.577 µM); with T cells (SK+IL-2), 476.00 ng/mL (≈ 2.16 µM); in the series on T cells (SK+PMA) it was 613.00 ng/mL (≈ 2.78 µM). Further, the “viability of PHA-stimulated T cells” value in the series with PHA-stimulated T cells [2] (1 ng/ml up to 1000 ng/ml) is “did not affect”. Further, in the series on PHA-stimulated T cells [2] (1,000 ng/ml), the cell viability is recorded as 35 % of control. Besides, the “IL-2R expression by PHA-activated T cells” value with IL-2R is given as “did not affect”. Further, in the series with IL-2, the “ID50, PHA-induced IL-2 production” value was 42.11 ng/mL (≈ 0.191 µM). For the same molecule, the solubility entry in “Solubility of 924” is on record as “soluble”.

Regarding `CC(C)[C@]12O[C@H]1[C@@H]1O[C@]13[C@]1(O[C@H]1C[C@H]1C4=C(C(=O)OC4)[C@@H](O)C[C@@]13C)[C@@H]2O` [tripdiolide], in the series with IDH4 cells, the “dexamethasone dependent growth of IDH4 cells” value is “inhibited”. Further, the “GR-mediated activation of target gene” value on human GR was “inhibited”. The “PGE2 production by LPS-activated U937 cells that do not express COX-2” value with U937 cells is recorded as “had effect”. In the series on cyclooxygenase 2 (COX-2), the “LPS / endotoxin induced PGE2 production by monocytes” value is recorded as “inhibited”.

Regarding `CC(C)[C@]12O[C@H]1[C@@H]1O[C@]13[C@]1(O[C@H]1C[C@H]1C4=C(CC[C@@]13C)C(=O)OC4)[C@@H]2O` [triptolide], in the series “in vitro”, the viability at 72 hr, 0.1 ng/ml came out at 91.7% and the viability at 72 hr, 10 ng/ml came out at 35.8%. Further, the “more potent at inhibition of MMTV-luciferase induction than at binding inhibition” value on human GR (compared with GR ligand binding inhibition) is reported as “more than an order of magnitude”. The “GR-mediated activation of target gene” value at human GR is on record as “inhibited”.
